Results reported in US5977319A, “Specific binding members for estradiol; materials and methods” (Cambridge Antibody Technology Limited, priority 1997, dated 1999).
“Also recorded” adds a separate entry of the source.

What was measured:
[1] = biological target: antibody D12 single-chain Fv (VH SEQ ID NO:2, VL SEQ ID NO:12; clone 1C with Ala80-Val80 in the lambda light chain); assay: Equilibrium dialysis, binding of tritium labelled estradiol to antibody D12; parameters: species or system human; details: 22° C., PBS, 20 hr, read-out: dissociation constant for estradiol
Experimental: Antibody diluted 4-fold to 200-fold was incubated with 50 pM tritium labelled estradiol plus unlabelled estradiol giving total estradiol concentrations from 100 pM to 100 μM. […] Equilibrium dialysis was carried out for 20 hr at 22° C. in phosphate buffered saline with a membrane having a 12 kDa exclusion limit.
Equilibrium dialysis was carried out at 22° C. in phosphate-bufferedsaline (PBS) using a microdialyzer (Hoefer) with a membrane having a 12 kDa exclusion limit. […] Antibody diluted 4-fold to 200-fold (from 0.7 nM to 33 nM, based on concentrations calculated from binding data) was incubated with 50 pM labelled estradiol (Amersham, tritium-labelled at positions 2,4,6,7,16,17) plus unlabelled estradiol to give total estradiol concentrations from 100 pM-100 μM. Mixtures were equilibrated for 2 h at 22° C. and dialysed against PBS for 20 h with constant mixing, before taking samples from each chamber for measurement of radioactivity.
Over the range of ligand concentrations necessary for affinity measurement (up to 100 nM), less than 10% of labelled estradiol bound non-specifically. After subtraction of non-specific binding, the dissociation constant (Kd) of estradiol binding to antibody D12 was calculated from equilibrium dialysis data using a non-linear least-squaresfit, assuming a single class of binding sites.

[2] = system: antibody D12 single-chain Fv (VH SEQ ID NO:2, VL SEQ ID NO:12); assay: ELISA, inhibition of antibody binding to BSA-estradiol by soluble steroid; parameters: species or system human
Experimental: An ELISA-based screening method was used to rank different clones on the basis of their relative equilibrium dissociation constants for estradiol. In this assay, crude culture supernatant was equilibrated with soluble steroids at a range of concentrations (10 μM, 1 μM, 100 nM and zero estradiol) then applied to ELISA wells coated with […]. Affinity for the soluble steroid was then indicated by a reduction in ELISA signal intensity due to the antibody being in complex with the soluble ligand and unavailable for binding to the plate. This gives a reduction in ELISA signal.
The binding properties of other steroids were investigated by measuring their ability to compete with estradiol for binding to D12 antibody. This was investigated using the ELISA based screening method (Example 2b) and any cross-reacting compounds were investigated further by equilibrium dialysis.
Culture supernatant from the antibody clone D12 was equilibrated with soluble steroid at a range of concentrations from 5 nM to 100 mM (or the limit solubility of the steroid), then transferred to an ELISA plate coated with BSA-estradiol. The ELISA plate was then processed as for a standard phage ELISA assay. Affinity for the soluble competing steroid was then indicated by a reduction in ELISA signal intensity due to the antibody being in complex with the soluble ligand and unavailable for binding to the plate.

[3] = system: antibody D12 single-chain Fv (VH SEQ ID NO:2, VL SEQ ID NO:12; clone 1C with Ala80-Val80 in the lambda light chain); assay: Equilibrium dialysis, competition of steroids with tritium labelled estradiol for antibody D12; format: binding, human; details: for Kd: D12 13.3 nM, 4 nM tritium labelled estradiol, competing steroid 100 nM to 100 μM, competitive inhibition assumed, read-out: affinities (dissociation constants) for cross-reactive steroids
Experimental: Dissociation constants were measured by equilibrium dialysis using conditions described for testosterone and estriol (FIG. 3 and the description of FIG. 3 given below). All steroids were tested at concentrations ranging from 10 nM to their solubility limits in PBS. The dissociation constants of antibody D12 for these compounds were calculated assuming that they were competitive inhibitors of estradiol binding.
Antibody D12 (13.3 nM) was incubated with 4 nM tritium labelled estradiol, plus competing steroid (100 nM to 100 μM). Pooled data from 3 experiments. Equilibrium dialysis was carried out for 20 hr at 22° C. in phosphate buffered saline with a membrane having a 12 kDa exclusion limit.
Antibody D12 (at a concentration of 13.3 nM) was incubated for 2 h with a mixture containing both tritium labelled estradiol (4 nM) and the competing steroid (100 nM to 100 μM), before equilibrium dialysis. The binding of other steroids to D12 antibody was quantified assuming competitive inhibition of estradiol binding. Data was analyzed with proprietary software (FIG.P package: Elsevier Biosoft).

[4] = biological target: mouse monoclonal antibody DB3; details: read-out: dissociation constant; cited from earlier work
[5] = biological target: progesterone-binding antibody from a non immunised murine repertoire; details: cited from earlier work
[6] = soluble steroid 5 nM to 100 mM (or the limit solubility of the steroid)

## C[C@]12CC[C@@H]3c4ccc(O)cc4CC[C@H]3[C@@H]1CC[C@@H]2O [estradiol, 1,3,5.estratriene 3,17 β-diol]
[1]
  Kd: 0.0037 µM

## C[C@]12CCC(=O)C[C@@H]1CC[C@@H]1[C@@H]2CC[C@]2(C)[C@@H](O)CC[C@@H]12 [dihydrotestosterone]
[2]; soluble steroid at 30 μM
  inhibition of binding to BSA-estradiol in ELISA: showed inhibition
[2]; soluble steroid at 30 μM, listed as Dihydrotestosterone
  inhibition of binding to BSA-estradiol in ELISA: inhibited estradiol binding

## C[C@]12CC[C@H]3[C@@H](CCC4=CC(=O)CC[C@@]43C)[C@@H]1CC[C@@H]2O [testosterone]
[3]
  selectivity for estradiol over the steroid: approximately 1,000 fold
  Kd: 15 µM
[2]; soluble steroid at 30 μM
  inhibition of binding to BSA-estradiol in ELISA: inhibited estradiol binding; also recorded: showed inhibition

## CC(C)CCC[C@@H](C)[C@H]1CC[C@H]2[C@@H]3CC=C4C[C@@H](O)CC[C@]4(C)[C@H]3CC[C@]12C [cholesterol]
[2]; [6]
  inhibition of binding to BSA-estradiol in ELISA: neither cholesterol nor estriol-3-β-D-glucuronide inhibited; also recorded: did not show any inhibition

## C[C@]12CC[C@@H]3c4ccc(O)cc4CC[C@H]3[C@@H]1C[C@@H](O)[C@@H]2O [Estriol, estriol]
[2]; soluble steroid at 30 μM
  inhibition of binding to BSA-estradiol in ELISA: did not inhibit estradiol binding

## C[C@]12CC[C@@H]3c4ccc(OS(=O)(=O)O)cc4CC[C@H]3[C@@H]1C[C@@H](O)[C@@H]2O [Estriol-3-sulphate]
[2]; soluble steroid at 100 μM
  inhibition of binding to BSA-estradiol in ELISA: inhibited estradiol binding
[2]; soluble steroid at 100 μM, listed as Estriol-3 sulphate
  inhibition of binding to BSA-estradiol in ELISA: inhibited only at very high concentrations

## C[C@]12CC[C@@H]3c4ccc(O[C@@H]5O[C@H](C(=O)O)[C@@H](O)[C@H](O)[C@H]5O)cc4CC[C@H]3[C@@H]1C[C@@H](O)[C@@H]2O [estriol-3-β-D-glucuronide]
[2]; [6]
  inhibition of binding to BSA-estradiol in ELISA: neither cholesterol nor estriol-3-β-D-glucuronide inhibited
[2]; soluble steroid 5 nM to 100 mM (or the limit solubility of the steroid), listed as Estriol-3-β-D-glucuronide
  inhibition of binding to BSA-estradiol in ELISA: did not show any inhibition

## C[C@]12CC[C@@H]3c4ccc(O)cc4CC[C@H]3[C@@H]1C[C@@H](O)[C@H]2O [17-epiestriol]
[2]; soluble steroid at 100 μM
  inhibition of binding to BSA-estradiol in ELISA: inhibited estradiol binding; also recorded: inhibited only at very high concentrations

## CC(=O)[C@H]1CC[C@H]2[C@@H]3CCC4=CC(=O)CC[C@]4(C)[C@H]3CC[C@]12C [progesterone]
[2]; soluble steroid at 100 μM
  inhibition of binding to BSA-estradiol in ELISA: inhibited estradiol binding; also recorded: inhibited only at very high concentrations
[4]
  Kd: ~0.001 µM
[5]
  dissociation constant: only micromolar

## C[C@]12CC[C@@H]3c4ccc(O)cc4CC[C@H]3[C@@H]1C[C@H](O)[C@@H]2O [16-epiestriol]
[3]
  Kd: 163 µM
[2]; soluble steroid at 100 μM
  inhibition of binding to BSA-estradiol in ELISA: inhibited estradiol binding; also recorded: inhibited only at very high concentrations
